For one series, the system named is EV-A71. In words: microbe, parasite or virus in culture. The series is classed as cell-based, enterovirus A71 (EV-A71). The following applies: Enterovirus A, EVA71, RD.
A further series relates to Vero cells. The following applies: African green monkey.
A further series is described as follows: in vitro. The following applies: human.
Another series relates to EV-D68. As to the kind of experiment: microbe, parasite or virus in culture. The series is classed as cell-based, enterovirus D68 (EV-D68). The following applies: Enterovirus D, EVD68, RD.
Another series relates to CVB3 Nancy virus. As to the kind of experiment: microbe, parasite or virus in culture. Format: cell-based, coxsackievirus B3 (CVB3). Particulars: Enterovirus B, CVB3, Vero, read-out: EC50, Anti-CVB3 in Vero cells.
Another series has as its system EV-D68, EV-A71, and CVB3. As to the kind of experiment: organism not typed. Format: cell-based. Particulars: for EC50: RD, read-out: EC50 values range against all EV-D68 and EV-A71 strains tested.
Another series deals with EV-D68 US/MO/14-18947. In words: microbe, parasite or virus in culture. The series is classed as cell-based, enterovirus D68 (EV-D68).
A further series deals with RD cells. The following applies: human.
Where [1] appears, read: read-out: EC50, Anti-EV-A71 Tainan/4643/1998 in RD cells.
[2] abbreviates: CC50, in RD cells (Anti-EV-A71).
The mark [3] stands for this setting: read-out: EC50, Anti-EV-D68 US/KY/14-18953 in RD cells.
Where [4] appears, read: read-out: EC50, EV-A71 Tainan/4643/1998.
Where [5] appears, read: read-out: EC50, EV-A71 USA/CT/2016-19519.
Setting [6] is: read-out: EC50, EV-D68 US/IL/14-18952 (Clade B2).
Setting [7] is: read-out: EC50, EV-D68 US/IL/14-18956 (Clade B2).
Where [8] appears, read: read-out: EC50, EV-D68 US/KY/14-18953 (Clade D).
[9] abbreviates: read-out: EC50, EV-D68 US/MO/14-18947 (Clade B1).
The mark [10] stands for this setting: read-out: EC50, EV-D68 US/MO/14-18949 (Clade B1).

SMILES strings stand for the structures. Read-outs that look alike come from different tables or passages of the source.

For the molecule `CC(CN(C)C)NC(=O)c1cc(C2CC2)nc2c1cnn2C(C)C` (centres unmarked) [Compound 7f, 6-cyclopropyl-N-[1-(dimethylamino)propan-2-yl]-1-(propan-2-yl)-1H-pyrazolo[3,4-b]pyridine-4-carboxamide], the EC50 in the series with EV-A71 (setting [1]) was determined as 100 nM; with EV-D68 (setting [3]), 100 nM; in the series on CVB3 Nancy virus, 40 nM. Also, the CC50 in the series on Vero cells is greater than 300000 nM; in the series “in vitro” (setting [2]), 72600 nM.
As for `CC(C)n1ncc2c(C(=O)NCCCN(C)C)cc(C3CC3)nc21` [Compound 7l, 6-cyclopropyl-N-[3-(dimethylamino)propyl]-1-(propan-2-yl)-1H-pyrazolo[3,4-b]pyridine-4-carboxamide], the EC50 was 1800 nM in the series on EV-A71 (setting [1]), 1200 nM in the series with EV-D68 (setting [3]) and 400 nM in the series with CVB3 Nancy virus. Further, the CC50 with Vero cells was greater than 200000 nM.
Consider `CC(C)c1cc(C(=O)NCCN(C)C)c2cnn(C(C)C)c2n1` [Compound 10a, N-[2-(dimethylamino)ethyl]-1,6-bis(propan-2-yl)-1H-pyrazolo[3,4-b]pyridine-4-carboxamide], for which the EC50 was 100 nM with EV-A71 (setting [1]); 200 nM with EV-A71 (read-out: EC50, EV-A71 A71 MP4); 200 nM with EV-A71 (setting [4]); 60 nM with EV-A71 (setting [5]); 60 to 300 nM in the series on EV-D68, EV-A71, and CVB3; 30 nM in the series with EV-D68 US/MO/14-18947 (Enterovirus D, EVD68, read-out: EC50, viral replication in neuronal cells (immunofluorescence, anti-VP1)). The EC50 in the series on EV-D68 (setting [3]) came out at 100 nM; in the series with EV-D68 (setting [6]), 90 nM; with EV-D68 (setting [7]), 70 nM; in the series on EV-D68 (setting [8]), 100 nM; with EV-D68 (setting [9]), 70 nM; in the series with EV-D68 (setting [10]) it was 80 nM. Also, in the series on CVB3 Nancy virus, the EC50 was 40 nM. Moreover, the CC50 with Vero cells was greater than 300000 nM.
`CC(C)c1cc(C(=O)NCCO)c2cnn(C(C)C)c2n1` [Compound 10b, N-(2-hydroxyethyl)-1,6-bis(propan-2-yl)-1H-pyrazolo[3,4-b]pyridine-4-carboxamide] returned a CC50 in the series with RD cells greater than 100000 nM.
In the case of `CC(CN(C)C)NC(=O)c1cc(C(C)C)nc2c1cnn2C(C)C` (centres unmarked) [Compound 10c, N-[1-(dimethylamino)propan-2-yl]-1,6-bis(propan-2-yl)-1H-pyrazolo[3,4-b]pyridine-4-carboxamide], the CC50 in the series on RD cells was greater than 100000 nM; in “in vitro” (setting [2]), 70300 nM. In addition, the EC50 in the series with EV-A71 (setting [1]) was 1000 nM; in the series on EV-D68 (setting [3]), 100 nM; in the series on CVB3 Nancy virus, 100 nM.
In the case of `CNCCNC(=O)c1cc(C(C)C)nc2c1cnn2C(C)C` [Compound 10d, N-[2-(methylamino)ethyl]-1,6-bis(propan-2-yl)-1H-pyrazolo[3,4-b]pyridine-4-carboxamide], the CC50 in the series with RD cells and in “in vitro” (setting [2]) was greater than 100000 nM throughout. Moreover, the EC50 was 100 nM in the series with EV-A71 (setting [1]), 400 nM in the series on EV-D68 (setting [3]) and 300 nM with CVB3 Nancy virus.
On to `Cc1cc(C(=O)NCCN(C)C)c2cnn(C(C)C)c2n1` [Compound 12a, N-[2-(dimethylamino)ethyl]-6-methyl-1-(propan-2-yl)-1H-pyrazolo[3,4-b]pyridine-4-carboxamide], for which the EC50 with EV-A71 (setting [1]) was determined as 100 nM; with EV-D68 (setting [3]) it was 400 nM; with CVB3 Nancy virus, 200 nM. In the series on Vero cells, this molecule came in with a CC50 greater than 300000 nM.
Take `Cc1cc(C(=O)NC2CCN(C)C2)c2cnn(C(C)C)c2n1` (centres unmarked) [Compound 12b, 6-methyl-N-(1-methylpyrrolidin-3-yl)-1-(propan-2-yl)-1H-pyrazolo[3,4-b]pyridine-4-carboxamide]: the CC50 with RD cells, in the series on Vero cells and in “in vitro” (setting [2]) was greater than 300000 nM in each case. Moreover, the values for the EC50 in the series with EV-A71 (setting [1]), in the series on EV-D68 (setting [3]) and in the series on CVB3 Nancy virus were 500 nM, 1800 nM and 800 nM, respectively.
Consider `Cc1cc(C(=O)NC2CN(C)C2)c2cnn(C(C)C)c2n1` [Compound 12c, 6-methyl-N-(1-methylazetidin-3-yl)-1-(propan-2-yl)-1H-pyrazolo[3,4-b]pyridine-4-carboxamide], for which the CC50 in the series on RD cells, with Vero cells and in “in vitro” (setting [2]) was greater than 300000 nM each time. Further, the values for the EC50 with EV-A71 (setting [1]), with EV-D68 (setting [3]) and in the series with CVB3 Nancy virus were 7300 nM, 11300 nM and 3800 nM, respectively.
In the case of `CNCCNC(=O)c1cc(C)nc2c1cnn2C(C)C` [Compound 12d, 6-methyl-N-(methylamino)ethyl-1-(propan-2-yl)-1H-pyrazolo[3,4-b]pyridine-4-carboxamide], the CC50 in the series with RD cells, in the series with Vero cells and in “in vitro” (setting [2]) was greater than 300000 nM in each case. Also, the EC50 was found to be 500 nM in the series with EV-A71 (setting [1]), 2300 nM in the series on EV-D68 (setting [3]) and 1400 nM with CVB3 Nancy virus.
Regarding `Cc1cc(C(=O)NCCN)c2cnn(C(C)C)c2n1` [Compound 12e, N-(2-aminoethyl)-6-methyl-1-(propan-2-yl)-1H-pyrazolo[3,4-b]pyridine-4-carboxamide], the CC50 with RD cells, in the series with Vero cells and in the series “in vitro” (setting [2]) was greater than 300000 nM each time. The EC50 came out at 700 nM with EV-A71 (setting [1]), 4700 nM in the series with EV-D68 (setting [3]) and 3800 nM with CVB3 Nancy virus.
Consider `CCn1ncc2c(C(=O)NCCN(C)C)cc(C)nc21` [Compound 15a, N-[2-(dimethylamino)ethyl]-1-ethyl-6-methyl-1H-pyrazolo[3,4-b]pyridine-4-carboxamide], for which the CC50 in the series on RD cells was greater than 300000 nM. For the same molecule, in the series on EV-D68 (setting [3]), the EC50 turned out to be 18300 nM.
In turn, `CCn1ncc2c(C(=O)NCCNC)cc(C)nc21` [Compound 15b, 1-ethyl-6-methyl-N-[2-(methylamino)ethyl]-1H-pyrazolo[3,4-b]pyridine-4-carboxamide] showed a CC50 with RD cells greater than 300000 nM. Further, the EC50 in the series on EV-A71 (setting [1]) was greater than 20000 nM; in the series on EV-D68 (setting [3]) it was 58400 nM.
Consider `CCn1ncc2c(C(=O)NCCN(C)C)cc(C3CC3)nc21` [Compound 16, 6-cyclopropyl-N-[2-(dimethylamino)ethyl]-1-ethyl-1H-pyrazolo[3,4-b]pyridine-4-carboxamide], for which the results for the EC50 in the series with EV-A71 (setting [1]), with EV-D68 (setting [3]) and in the series on CVB3 Nancy virus were 1200 nM, 1700 nM and 1800 nM, respectively. Moreover, the “EC50 values in words (summary across viruses)” value with EV-D68, EV-A71, and CVB3 is listed as “single-digit micromolar range”. This molecule also had a CC50 in the series with Vero cells greater than 300000 nM.
In the series on RD cells, `CN(C)CCNC(=O)c1cc(C2CC2)nc2c1cnn2C` [Compound 17, 6-cyclopropyl-N-[2-(dimethylamino)ethyl]-1-methyl-1H-pyrazolo[3,4-b]pyridine-4-carboxamide] displayed a CC50 greater than 300000 nM.
As for `Cc1cc(C(=O)NCCN(C)C)c2c(C)nn(C(C)(C)C)c2n1` [Compound 19, 1-tert-butyl-N-[2-(dimethylamino)ethyl]-3,6-dimethyl-1H-pyrazolo[3,4-b]pyridine-4-carboxamide], the EC50 is 7400 nM in the series on EV-A71 (setting [1]); 2000 nM in the series on EV-A71 (read-out: EC50, EV-A71 A71 MP4); 7400 nM in the series on EV-A71 (setting [4]); 1300 nM with EV-A71 (setting [5]); 400 to 7400 nM in the series on EV-D68, EV-A71, and CVB3; 1000 nM with EV-D68 (setting [3]). In addition, the EC50 with EV-D68 (setting [6]) is 700 nM; in the series with EV-D68 (setting [7]), 400 nM; with EV-D68 (setting [8]) it was 1000 nM; in the series on EV-D68 (setting [9]), 400 nM; in the series with EV-D68 (setting [10]), 700 nM; in the series on CVB3 Nancy virus, 2100 nM. In the series with EV-D68, EV-A71, and CVB3, the “selectivity index across EV-D68 and EV-A71 strains tested” value is greater than 100. Moreover, the CC50 in “in vitro” (CC50 (EV-A71 A71 MP4 row group)), in “in vitro” (CC50 (EV-A71 Tainan/4643/1998)) and in the series “in vitro” (CC50 (EV-A71 USA/CT/2016-19519)) was 236000 nM throughout.
Regarding `CCCn1ncc2c(C(=O)NCCN(C)C)cc(C3CC3)nc21` [Compound 20, 6-cyclopropyl-N-[2-(dimethylamino)ethyl]-1-propyl-1H-pyrazolo[3,4-b]pyridine-4-carboxamide], the EC50 in the series with EV-A71 (setting [1]) came to 2000 nM; in the series on EV-D68 (setting [3]) it was 1200 nM; in the series on CVB3 Nancy virus it was 2000 nM. The “EC50 values in words (summary across viruses)” value in the series with EV-D68, EV-A71, and CVB3 is recorded as “low single-digit or submicromolar”. Also, the CC50 in “in vitro” (setting [2]) stood at 57700 nM.
Regarding `Cc1cc(CCCOc2c(C)cc(-c3noc(C(F)(F)F)n3)cc2C)on1` [pleconaril, reference compound], in the series with EV-D68 US/MO/14-18947 (at 50 μM), the “viral replication (VP1 fluorescence signal)” value was “completely abolished viral replication”.

The values are drawn from US11834451B2 (priority 2021, dated 2023).
